We go through ten compounds from ChEMBL document CHEMBL1201862, “PubChem BioAssay data set” (2004).

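Assay format: 96-well plates, 48-hour exposure. GI50 marks 50% less growth.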 The source made the active and inactive calls. Rule as the data show it: active = GI50 up to about 1.1 µM and inactive = higher.

Among the test systems are 786-0; A498; CAKI-1; CCRF-CEM; DU-145; HCC 2998; HCT-116; HCT-15; HOP-62; HT-29; LOX IMVI; MDA-N; NCI-H522; SK-MEL-28; SK-MEL-2; SN12C; SR; SW-620; UACC-62; UO-31.
Assay in all cases: inhibition of tumour cell growth, NCI panel, 48 h

For `O=c1nc2n(CCO)c(-c3ccccc3)c(-c3ccccc3)nc-2c(=O)[nH]1`, the GI50 in the experiment with 786-0, with A498, with CAKI-1, in the experiment with CCRF-CEM, with DU-145 and with HCC 2998 was > 100 µM (inactive) throughout. The GI50 was > 100 µM (inactive) with HCT-116; greater than 100 µM in the experiment with HCT-15; > 100 µM (inactive) in the experiment on HOP-62; > 100 µM (inactive) in the experiment with HT-29; > 100 µM (inactive) with LOX IMVI; > 100 µM (inactive) in the experiment with MDA-N. Also, the GI50 in the experiment with NCI-H522 is > 100 µM (inactive); in the experiment on SK-MEL-28 it was > 100 µM (inactive); in the experiment with SK-MEL-2 it was > 100 µM (inactive); in the experiment with SN12C it was > 100 µM (inactive); in the experiment with SR it was 40.6 µM (inactive); in the experiment with SW-620, > 100 µM (inactive). For the same compound, the GI50 in the experiment on UACC-62 and with UO-31 was > 100 µM (inactive) in each case.

Take `Cc1cn(C2CC(O)C(CO)O2)c(=O)[nH]c1=O` (stereo not given): the GI50 was 1160 µM (inactive) with 786-0; > 4670 µM (inactive) in the experiment on A498; 1420 µM (inactive) in the experiment on CAKI-1; 54.7 µM (inactive) with CCRF-CEM; > 4450 µM (inactive) in the experiment on DU-145; 3680 µM (inactive) with HCC 2998. The GI50 in the experiment with HCT-116 is 1930 µM (inactive); with HCT-15, 3370 µM; in the experiment on HOP-62, 1380 µM (inactive); in the experiment on HT-29, 4430 µM (inactive); with LOX IMVI, 1310 µM (inactive); in the experiment with MDA-N, 3780 µM (inactive). Also, the GI50 in the experiment on NCI-H522 is 1690 µM (inactive); with SK-MEL-28, 1360 µM (inactive); with SK-MEL-2, 3880 µM (inactive); in the experiment on SN12C, 1220 µM (inactive); in the experiment on SR, > 2020 µM (inactive); in the experiment with SW-620, 2130 µM (inactive). Further, the GI50 with UACC-62 is 843 µM (inactive); with UO-31, 3670 µM (inactive).

Regarding `CC(=O)O[C@H]1CC[C@@]2(C)C(=CC[C@@H]3[C@@H]2CC[C@]2(C)NC(=O)/C(=C\c4ccccc4)C[C@@H]32)C1`, the GI50 in the experiment with 786-0 was 17.6 µM (inactive); in the experiment on A498, 13.8 µM (inactive); with CAKI-1, 25.9 µM (inactive); with CCRF-CEM it was 16.5 µM (inactive); in the experiment on DU-145, 15.9 µM (inactive); in the experiment on HCC 2998, 21.3 µM (inactive). The GI50 in the experiment with HCT-116 was 15.6 µM (inactive); with HCT-15 it was 18.6 µM; with HOP-62, 13.2 µM (inactive); in the experiment with HT-29, 15 µM (inactive); in the experiment on LOX IMVI, 17 µM (inactive); with MDA-N it was 19.6 µM (inactive). In addition, the GI50 was 15.6 µM (inactive) in the experiment on NCI-H522; 16.8 µM (inactive) with SK-MEL-28; 20.4 µM (inactive) in the experiment with SK-MEL-2; 18.7 µM (inactive) in the experiment on SN12C; 55 µM (inactive) in the experiment on SR; 20.2 µM (inactive) in the experiment on SW-620. Also, the GI50 in the experiment on UACC-62 was 14 µM (inactive); with UO-31 it was 15.7 µM (inactive).

As for `CC1(C)CC2(C)ON=C(c3ccccc3)N2c2ccccc2N1` (stereo not given), the GI50 was 23.3 µM (inactive) in the experiment with 786-0; 28.6 µM (inactive) in the experiment with A498; 20.8 µM (inactive) with CAKI-1; 32.7 µM (inactive) with CCRF-CEM; 33.1 µM (inactive) in the experiment with DU-145; 35.2 µM (inactive) in the experiment with HCC 2998. Moreover, the GI50 in the experiment on HCT-116 was 14.8 µM (inactive); in the experiment on HCT-15, 29.6 µM; in the experiment with HOP-62, 17.7 µM (inactive); in the experiment on HT-29, 16.4 µM (inactive); with LOX IMVI it was 17.3 µM (inactive); in the experiment with MDA-N it was 21.2 µM (inactive). Moreover, the GI50 in the experiment on NCI-H522 is 21.4 µM (inactive); in the experiment with SK-MEL-28, 23 µM (inactive); with SK-MEL-2, 20.9 µM (inactive); with SN12C it was 30.3 µM (inactive); in the experiment on SR, 34.5 µM (inactive); in the experiment with SW-620, 36.5 µM (inactive). Also, the GI50 in the experiment with UACC-62 was 14.1 µM (inactive); in the experiment on UO-31, 18.2 µM (inactive).

On to `O=C1O[C@H]2[C@H](OC(=O)c3cc(O)c(O)c(O)c3)[C@@H](OC(=O)c3cc(O)c(O)c4c3[C@@H]3C1=CC(=O)C(O)(O)C3(O)O4)[C@H](OC(=O)c1cc(O)c(O)c(O)c1)O[C@@H]2COC(=O)c1cc(O)c(O)c(O)c1` (stereo not given in full) [TERCHEBIN], for which the GI50 with 786-0 was 60.8 µM (inactive); with A498, > 100 µM (inactive); in the experiment with CAKI-1, 36.2 µM (inactive); in the experiment on CCRF-CEM, 23 µM (inactive); in the experiment on DU-145, 76 µM (inactive); in the experiment on HCC 2998, 68.2 µM (inactive). For the same compound, the GI50 in the experiment with HCT-116 is 33 µM (inactive); with HCT-15, 36.6 µM; in the experiment with HOP-62, 99.3 µM (inactive); with HT-29, 37.4 µM (inactive); in the experiment with LOX IMVI it was 25.1 µM (inactive); with MDA-N, 53.5 µM (inactive). For the same compound, the GI50 was 32.1 µM (inactive) in the experiment with NCI-H522; > 100 µM (inactive) with SK-MEL-28; > 100 µM (inactive) in the experiment with SK-MEL-2; > 100 µM (inactive) in the experiment with SN12C; 44.2 µM (inactive) with SR; 63.5 µM (inactive) with SW-620. For the same compound, the GI50 with UACC-62 was 50.6 µM (inactive); with UO-31, 18.5 µM (inactive).

For the compound `CC(C)CC(=O)CC(O)C(Cl)(Cl)Cl` (stereo not given), the GI50 in the experiment with 786-0, in the experiment with A498, with CAKI-1, in the experiment on CCRF-CEM, in the experiment with DU-145 and in the experiment on HCC 2998 was > 100 µM (inactive) in each case. Besides, the GI50 was > 100 µM (inactive) in the experiment with HCT-116; greater than 100 µM in the experiment on HCT-15; > 100 µM (inactive) in the experiment on HOP-62; > 100 µM (inactive) in the experiment with HT-29; > 100 µM (inactive) with LOX IMVI; > 100 µM (inactive) in the experiment with MDA-N. Besides, the GI50 in the experiment on NCI-H522 was 3.95 µM (inactive); in the experiment with SK-MEL-28 it was > 100 µM (inactive); in the experiment on SK-MEL-2 it was > 100 µM (inactive); with SN12C, > 100 µM (inactive); in the experiment on SR, > 100 µM (inactive); in the experiment on SW-620 it was > 100 µM (inactive). In addition, the GI50 in the experiment with UACC-62 and with UO-31 was > 100 µM (inactive) throughout.

Take `N#Cc1c(NC(=S)NCc2ccccc2)sc2c1CCN(N1CCc3c(sc(NC(=S)NCc4ccccc4)c3C#N)C1)C2`: the GI50 in the experiment with 786-0, with A498, in the experiment on CAKI-1, with CCRF-CEM, in the experiment on DU-145 and with HCC 2998 was > 100 µM (inactive) throughout. Also, the GI50 is > 100 µM (inactive) in the experiment with HCT-116; greater than 100 µM with HCT-15; > 100 µM (inactive) in the experiment with HOP-62; > 100 µM (inactive) in the experiment on HT-29; > 100 µM (inactive) with LOX IMVI; > 100 µM (inactive) with MDA-N. Further, the GI50 with NCI-H522, in the experiment with SK-MEL-28, in the experiment on SK-MEL-2, in the experiment with SN12C, in the experiment on SR and in the experiment on SW-620 was > 100 µM (inactive) throughout. For the same compound, the GI50 in the experiment on UACC-62 and in the experiment with UO-31 was > 100 µM (inactive) in each case.

As to `Cc1ccc(F)c2[nH]c(-c3ccccc3)cc(=O)c12`, the GI50 with 786-0 is 2.83 µM (inactive); with A498, 39.4 µM (inactive); in the experiment on CAKI-1, > 100 µM (inactive); in the experiment on CCRF-CEM it was 4.48 µM (inactive); in the experiment with DU-145 it was 8.04 µM (inactive); with HCC 2998, 11.9 µM (inactive). Further, the GI50 with HCT-116 is 4.73 µM (inactive); in the experiment on HCT-15, 1.64 µM; with HOP-62, 5.9 µM (inactive); with HT-29 it was 4.57 µM (inactive); in the experiment on LOX IMVI, 4.68 µM (inactive); in the experiment with MDA-N it was 0.897 µM (active). The GI50 in the experiment with NCI-H522 is 5.69 µM (inactive); in the experiment with SK-MEL-28, 3.11 µM (inactive); in the experiment on SK-MEL-2, 6.93 µM (inactive); with SN12C, 7.1 µM (inactive); in the experiment on SR, 2.99 µM (inactive); in the experiment with SW-620 it was 4.67 µM (inactive). Also, the values for the GI50 in the experiment on UACC-62 and in the experiment with UO-31 were 3.84 µM (inactive) and 9.23 µM (inactive), respectively.

Consider `COc1ccc(Nc2c(C#N)c3n(c4ccccc24)c2ccccc2[n+]3C)cc1OC`, for which the GI50 in the experiment on 786-0 was 2.12 µM (inactive); in the experiment on A498, 4.31 µM (inactive); in the experiment on CAKI-1, 1.93 µM (inactive); with CCRF-CEM, > 100 µM (inactive); in the experiment on DU-145 it was 2.81 µM (inactive); with HCC 2998, 4.17 µM (inactive). Moreover, the GI50 in the experiment with HCT-116 was 1.61 µM (inactive); with HCT-15, 1.88 µM; with HOP-62 it was 3.24 µM (inactive); in the experiment on HT-29, 3.13 µM (inactive); with LOX IMVI, 1.9 µM (inactive); in the experiment on MDA-N, 2.7 µM (inactive). Moreover, the GI50 in the experiment with NCI-H522 was 3.16 µM (inactive); with SK-MEL-28, 4.43 µM (inactive); with SK-MEL-2 it was 3.86 µM (inactive); in the experiment with SN12C, 1.27 µM (inactive); with SR, 6.46 µM (inactive); with SW-620, 2.44 µM (inactive). Also, the GI50 with UACC-62 is 3.15 µM (inactive); with UO-31 it was 1.3 µM (inactive).

As to `CN1C(=O)N(c2ccccc2)C2(CCN(CC3COc4ccccc4O3)CC2)C1=O` (stereo not given), the GI50 with 786-0 was 85.3 µM (inactive); in the experiment with A498, > 100 µM (inactive); in the experiment with CAKI-1, 32.4 µM (inactive); with CCRF-CEM, > 100 µM (inactive); with DU-145, > 100 µM (inactive); in the experiment with HCC 2998, > 100 µM (inactive). The GI50 in the experiment with HCT-116 is 96.8 µM (inactive); in the experiment with HCT-15 it was greater than 100 µM; in the experiment with HOP-62, > 100 µM (inactive); with HT-29, 95.1 µM (inactive); in the experiment with LOX IMVI it was > 100 µM (inactive); in the experiment with MDA-N, > 100 µM (inactive). In addition, the GI50 in the experiment on NCI-H522 was > 100 µM (inactive); in the experiment with SK-MEL-28, > 100 µM (inactive); in the experiment with SK-MEL-2 it was > 100 µM (inactive); in the experiment on SN12C it was > 100 µM (inactive); in the experiment on SR, > 100 µM (inactive); with SW-620, 4.5 µM (inactive). For the same compound, the GI50 in the experiment on UACC-62 and with UO-31 was > 100 µM (inactive) in each case.
